Measured values taken from US9994547B2, “Heteroarylamide inhibitors of TBK1” (Takeda Pharmaceutical Company Limited, priority 2014, dated 2018).

Experiments:
[1] = target: Full length human TBK1 (Homo sapiens (Human), UniProt Q9UHD2); assay: Inhibition of TBK1 Enzyme (Example A); type: biochemical; details: -log(IC50), IC50 molar; 3 nM TBK1, 25 μM ATP, 60 min RT
Outline: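 Full-length N-His human TBK1 from Sf9 baculovirus was tested with 11-point 2.5-fold dilutions (1% DMSO) in Hepes pH 7.4, MgCl2, EDTA, Brij, DTT. After 60 min RT and EDTA quench, microfluidic conversion was fitted and reported as pIC50.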

[2] = test system: C57/BL6 mice; assay: Inhibition of ConA Induced Hepatitis (Example B); type: in vivo; details: Mus musculus; oral, 1 hr before ConA 15 mg/kg i.v.; plasma ALT post 8-24 hrs; read-out: ED50 (amount of test compound that reduces ConA induced increase in plasma ALT level by 50%)
Experimental: Orally administer compound into normal C57/BL6 mice at several doses. After 1 hr, inject i.v. with ConA 15 mg/kg, (N=5). Post 8-24 hrs, collect plasma and liver. Measure plasma ALT enzyme level. An ED50 is determined as the amount of test compound that reduces ConA induced increase in plasma ALT level by 50%.

Full length human TBK1, sequence (Q9UHD2 whole entry): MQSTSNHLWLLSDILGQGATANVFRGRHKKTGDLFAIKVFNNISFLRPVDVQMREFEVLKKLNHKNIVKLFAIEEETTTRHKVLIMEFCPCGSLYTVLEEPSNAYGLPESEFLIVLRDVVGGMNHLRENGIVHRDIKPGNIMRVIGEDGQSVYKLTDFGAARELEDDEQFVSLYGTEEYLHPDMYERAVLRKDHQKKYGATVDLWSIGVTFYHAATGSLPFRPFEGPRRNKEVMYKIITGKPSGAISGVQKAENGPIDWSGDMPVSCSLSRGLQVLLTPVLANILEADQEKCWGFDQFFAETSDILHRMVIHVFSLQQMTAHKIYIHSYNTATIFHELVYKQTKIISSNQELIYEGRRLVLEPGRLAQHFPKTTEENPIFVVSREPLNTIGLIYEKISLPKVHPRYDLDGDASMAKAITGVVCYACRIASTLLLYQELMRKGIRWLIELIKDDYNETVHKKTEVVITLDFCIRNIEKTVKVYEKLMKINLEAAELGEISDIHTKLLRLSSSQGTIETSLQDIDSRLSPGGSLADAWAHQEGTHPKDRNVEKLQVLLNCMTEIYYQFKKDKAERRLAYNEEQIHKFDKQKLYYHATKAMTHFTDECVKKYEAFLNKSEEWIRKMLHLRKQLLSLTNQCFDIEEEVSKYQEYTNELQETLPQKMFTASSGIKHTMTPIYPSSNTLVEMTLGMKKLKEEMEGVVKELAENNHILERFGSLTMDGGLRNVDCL

Structure (SMILES)	TBK1 Inhibition (pIC50) [1]	ED50 [2] [mg/kg]
C[C@H](Nc1cc(-c2cnc(NC(=O)C3CC3)cn2)ccc1C#N)C(=O)N(C)C [Example 1, (S)-N-(5-(4-cyano-3-((1-(dimethylamino)-1-oxopropan-2-yl)amino)phenyl)pyrazin-2-yl)cyclopropanecarboxamide]	8.1	5
CCN(C)C(=O)[C@H](C)Nc1cc(-c2cnc(NC(=O)C3CC3)cn2)cnc1C#N [Example 112, (S)-N-(5-(6-cyano-5-((1-(ethyl(methyl)amino)-1-oxopropan-2-yl)amino)pyridin-3-yl)pyrazin-2-yl)cyclopropanecarboxamide]	7.7	–
C[C@H](Nc1cc(-c2cnc(NC(=O)C3CC3)cn2)ccc1C#N)C(=O)N(C)CCO [Example 19, (S)-N-(5-(4-cyano-3-((1-((2-hydroxyethyl)(methyl)amino)-1-oxopropan-2-yl)amino)phenyl)pyrazin-2-yl)cyclopropanecarboxamide]	7.7	–
COCCN(CC(F)(F)F)C(=O)CNc1cc(-c2cnc(NC(=O)C3CC3)cn2)cnc1C#N [Example 77, N-(5-(6-cyano-5-((2-((2-methoxyethyl)(2,2,2-trifluoroethyl)amino)-2-oxoethyl)amino)pyridin-3-yl)pyrazin-2-yl)cyclopropanecarboxamide]	7.2	–
CCN(C)C(=O)[C@H](C)Nc1cc(-c2cnc(NC(=O)C3CC3)cn2)ccc1C#N [Example 12, (S)-N-(5-(4-cyano-3-((1-(ethyl(methyl)amino)-1-oxopropan-2-yl)amino)phenyl)pyrazin-2-yl)cyclopropanecarboxamide]	8.0	–
CN(C)C(=O)C(CO)Nc1cc(-c2cnc(NC(=O)C3CC3)cn2)cnc1C#N [Example 128, (S)-N-(5-(6-cyano-5-((1-(dimethylamino)-3-hydroxy-1-oxopropan-2-yl)amino)pyridin-3-yl)pyrazin-2-yl)cyclopropanecarboxamide]	7.1	–
C[C@H](Nc1cc(-c2cnc(NC(=O)C3CC3)cn2)cnc1C#N)C(=O)N(C)C [Example 129, (S)-N-(5-(6-cyano-5-((1-(dimethylamino)-1-oxopropan-2-yl)amino)pyridin-3-yl)pyrazin-2-yl)cyclopropanecarboxamide]	7.6	–
CC[C@H](Nc1cc(-c2cnc(NC(=O)C3CC3)cn2)cnc1C#N)C(=O)N(C)CCO [Example 70, (S)-N-(5-(6-cyano-5-((1-((2-hydroxyethyl)(methyl)amino)-1-oxobutan-2-yl)amino)pyridin-3-yl)pyrazin-2-yl)cyclopropanecarboxamide]	7.1	–
C[C@H](Nc1cc(-c2cnc(NC(=O)C3CC3)cn2)cnc1C#N)C(=O)N(C)[C@@H](C)C#N [Example 89, N-(5-(6-cyano-5-(((S)-1-(((S)-1-cyanoethyl)(methyl)amino)-1-oxopropan-2-yl)amino)pyridin-3-yl)pyrazin-2-yl)cyclopropanecarboxamide]	7.9	–
COCCN(C)C(=O)[C@H](C)Nc1cc(-c2cnc(NC(=O)C3CC3)cn2)ccc1C#N [Example 17, (S)-N-(5-(4-cyano-3-((1-((2-methoxyethyl)(methyl)amino)-1-oxopropan-2-yl)amino)phenyl)pyrazin-2-yl)cyclopropanecarboxamide]	7.1	–
N#Cc1ncc(-c2cnc(NC(=O)C3CC3)cn2)cc1NCC(=O)N1CCC[C@@H]1C#N [Example 45, (R)-N-(5-(6-cyano-5-((2-(2-cyanopyrrolidin-1-yl)-2-oxoethyl)amino)pyridin-3-yl)pyrazin-2-yl)cyclopropanecarboxamide]	7.5	–
N#CCN(CCO)C(=O)CNc1cc(-c2cnc(NC(=O)C3CC3)cn2)cnc1C#N [Example 87, N-(5-(6-cyano-5-((2-((cyanomethyl)(2-hydroxyethyl)amino)-2-oxoethyl)amino)pyridin-3-yl)pyrazin-2-yl)cyclopropanecarboxamide]	7.2	–
COC1CN(C(=O)CNc2cc(-c3cnc(NC(=O)C4CC4)cn3)ccc2C#N)C1 [Example 22, N-(5-(4-cyano-3-((2-(3-methoxyazetidin-1-yl)-2-oxoethyl)amino)phenyl)pyrazin-2-yl)cyclopropanecarboxamide]	6.0	–
C[C@H](Nc1cc(-c2cnc(NC(=O)C3CC3)cn2)ccc1C#N)C(=O)NCCO [Example 13, (S)-N-(5-(4-cyano-3-((1-((2-hydroxyethyl)amino)-1-oxopropan-2-yl)amino)phenyl)pyrazin-2-yl)cyclopropanecarboxamide]	6.3	–
C[C@H](Nc1cc(-c2cnc(NC(=O)[C@H]3C[C@H]3C)cn2)cnc1C#N)C(=O)N(C)C [Example 109, (1S,2R)-N-(5-(6-cyano-5-(((S)-1-(dimethylamino)-1-oxopropan-2-yl)amino)pyridin-3-yl)pyrazin-2-yl)-2-methylcyclopropanecarboxamide]	7.2	–
C[C@@H](Nc1cc(-c2cnc(NC(=O)C3CC3)cn2)ccc1C#N)C(=O)N(C)C [Example 2, (R)-N-(5-(4-cyano-3-((1-(dimethylamino)-1-oxopropan-2-yl)amino)phenyl)pyrazin-2-yl)cyclopropanecarboxamide]	7.1	–
C[C@H](Nc1cc(-c2cnc(NC(=O)C3CC3)cn2)cnc1C#N)C(=O)NCC(F)F [Example 114, (S)-N-(5-(6-cyano-5-((1-((2,2-difluoroethyl)amino)-1-oxopropan-2-yl)amino)pyridin-3-yl)pyrazin-2-yl)cyclopropanecarboxamide]	7.7	–
CN(C(=O)CNc1cc(-c2cnc(NC(=O)C3CC3)cn2)ccc1C#N)C1CC1 [Example 25, N-(5-(4-cyano-3-((2-(cyclopropyl(methyl)amino)-2-oxoethyl)amino)phenyl)pyrazin-2-yl)cyclopropanecarboxamide]	7.4	–
CCNC(=O)CNc1cc(-c2cnc(NC(=O)C3CC3)cn2)ccc1C#N [Example 124, N-(5-(4-cyano-3-((2-(ethylamino)-2-oxoethyl)amino)phenyl)pyrazin-2-yl)cyclopropanecarboxamide]	6.5	–
C[C@H]1COCCN1C(=O)CNc1cc(-c2cnc(NC(=O)C3CC3)cn2)cnc1C#N [Example 84, (S)-N-(5-(6-cyano-5-((2-(3-methylmorpholino)-2-oxoethyl)amino)pyridin-3-yl)pyrazin-2-yl)cyclopropanecarboxamide]	7.2	–
CN1CCN(C(=O)CNc2cc(-c3cnc(NC(=O)C4CC4)cn3)cnc2C#N)CC1 [Example 97, N-(5-(6-cyano-5-((2-(4-methylpiperazin-1-yl)-2-oxoethyl)amino)pyridin-3-yl)pyrazin-2-yl)cyclopropanecarboxamide]	5.5	–
CC(NC(=O)[C@H](C)Nc1cc(-c2cnc(NC(=O)C3CC3)cn2)cnc1C#N)C(F)F (stereo partly drawn) [Example 119, N-(5-(6-cyano-5-(((2S)-1-((1,1-difluoropropan-2-yl)amino)-1-oxopropan-2-yl)amino)pyridin-3-yl)pyrazin-2-yl)cyclopropanecarboxamide]	8.1	–
